From ChEMBL document CHEMBL5316297, “Mechanistic Insight of Synthesized 1,4-Dihydropyridines as an Antidiabetic Sword against Reactive Oxygen Species” (J Med Chem, 2023)
pIC50: −log10 of the molar value.

Experiments:
[1] = molecular target: T1, Alpha amylase (Homo sapiens, UniProt P0DUB6); experiment: Inhibition of alpha amylase (unknown origin) measured after 20 to 25 mins
T1 sequence (P0DUB6 whole entry): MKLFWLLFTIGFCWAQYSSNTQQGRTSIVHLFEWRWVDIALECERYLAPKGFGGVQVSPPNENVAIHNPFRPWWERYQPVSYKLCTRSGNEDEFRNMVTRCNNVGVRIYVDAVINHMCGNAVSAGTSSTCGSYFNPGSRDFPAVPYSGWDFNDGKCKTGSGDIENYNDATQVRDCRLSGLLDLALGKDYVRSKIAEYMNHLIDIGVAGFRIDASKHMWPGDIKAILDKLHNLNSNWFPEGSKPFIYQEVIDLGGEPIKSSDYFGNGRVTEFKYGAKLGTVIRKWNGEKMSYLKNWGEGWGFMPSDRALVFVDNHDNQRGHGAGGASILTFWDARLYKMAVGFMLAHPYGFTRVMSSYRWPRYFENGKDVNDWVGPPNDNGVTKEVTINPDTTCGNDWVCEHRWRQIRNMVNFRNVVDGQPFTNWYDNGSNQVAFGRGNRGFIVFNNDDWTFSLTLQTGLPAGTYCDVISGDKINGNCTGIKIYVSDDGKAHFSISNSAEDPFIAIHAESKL

[2] = Cytotoxicity against human HCN-1A cells assessed as cell growth inhibition at 10 uM relative to control; assay type: toxicity, cell-based; conditions: read-out: GI
[3] = tested on: INS1; experiment: Induction of apoptosis in rat INS1 cells assessed as total apoptotic cells at 1 uM incubated for 36 hrs by Annexin V-FITC/ propidium iodide staining based flow cytometry analysis (reference value: 0.53%); assay type: functional
[4] = Cytotoxicity against human MCF-10F cells assessed as cell growth inhibition at 10 uM relative to control; assay type: toxicity, cell-based; conditions: read-out: GI
[5] = Cytotoxicity against human WPE1-NA22 cells assessed as cell growth inhibition at 10 uM relative to control; assay type: toxicity, cell-based; conditions: read-out: GI
[6] = tested on: Mus musculus; experiment: Antidiabetic activity against high fat diet-STZ-induced diabetic Swiss albino mouse model assessed as insulin resistance by measuring serum IL6 level at 0.2 mmol/Kg/day, po administered for 14 days by ELISA method (reference value: 39.30+/-4.14 pg/ml); assay type: functional; conditions: time 14 day
[7] = tested on: Mus musculus; experiment: Antioxidant activity against high fat diet-STZ-induced diabetic Swiss albino mouse model assessed as serum SOD level at 0.2 mmol/Kg/day, po administered for 14 days (reference value: 273.01+/- 6.23 U/ml); assay type: functional; conditions: time 14 day
[8] = tested on: Mus musculus; experiment: Antidiabetic activity against high fat diet-STZ-induced diabetic Swiss albino mouse model assessed as reduction in blood glucose level at 0.2 mmol/Kg/day, po administered for 14 days; assay type: functional; conditions: time 14 day
[9] = tested on: INS1; experiment: Induction of apoptosis in rat INS1 cells assessed as late apoptotic cells at 1 uM incubated for 36 hrs by Annexin V-FITC/ propidium iodide staining based flow cytometry analysis (reference value: 0.19%); assay type: functional
[10] = tested on: Mus musculus; experiment: Antioxidant activity against high fat diet-STZ-induced diabetic Swiss albino mouse model assessed as serum MDA level at 0.2 mmol/Kg/day, po administered for 14 days (reference value: 8.70+/- 0.09 nmol/ml); assay type: functional; conditions: time 14 day
[11] = Cytotoxicity against human BJ cells assessed as cell growth inhibition at 10 uM relative to control; assay type: toxicity, cell-based; conditions: read-out: GI
[12] = Cytotoxicity against human MRC5 cells assessed as cell growth inhibition at 10 uM relative to control; assay type: toxicity, cell-based; conditions: read-out: GI
[13] = Cytotoxicity against human ECT1/E6E7 cells assessed as cell growth inhibition at 10 uM relative to control; assay type: toxicity, cell-based; conditions: read-out: GI
[14] = tested on: Mus musculus; experiment: Antidiabetic activity against high fat diet-STZ-induced diabetic Swiss albino mouse model assessed as serum insulin level at 0.2 mmol/Kg/day, po administered for 14 days by ELISA method (reference value: 16.37 +/- 0.62 uU/ml); assay type: functional; conditions: time 14 day
[15] = tested on: Mus musculus; experiment: Antidiabetic activity against high fat diet-STZ-induced diabetic Swiss albino mouse model assessed as insulin resistance by measuring serum TNFalpha level at 0.2 mmol/Kg/day, po administered for 14 days by ELISA method (reference value: 376.50+/-14.50 ng/ml); assay type: functional; conditions: time 14 day
[16] = Cytotoxicity against HEK293 cells assessed as cell growth inhibition at 10 uM relative to control; assay type: toxicity, cell-based; conditions: human, read-out: GI
[17] = tested on: INS1; experiment: Induction of apoptosis in rat INS1 cells assessed as early apoptotic cells at 1 uM incubated for 36 hrs by Annexin V-FITC/ propidium iodide staining based flow cytometry analysis (reference value: 0.34%); assay type: functional
[18] = Cytotoxicity against human THLE-2 cells assessed as cell growth inhibition at 10 uM relative to control; assay type: toxicity, cell-based; conditions: read-out: GI
[19] = tested on: Mus musculus; experiment: Antioxidant activity against high fat diet-STZ-induced diabetic Swiss albino mouse model assessed as serum catalase level at 0.2 mmol/Kg/day, po administered for 14 days (reference value: 378.22+/- 14.45 U/ml); assay type: functional; conditions: time 14 day
[20] = Toxicity in high fat diet-STZ-induced diabetic Swiss albino mouse model assessed as changes in body weight at 0.2 mmol/Kg/day, po administered for 14 days (reference value: 26.6 to 27.8 g); assay type: organism-based; conditions: in vivo, 336 h, time 14 day
[21] = tested on: INS1; experiment: Induction of apoptosis in rat INS1 cells assessed as necrotic cells at 1 uM incubated for 36 hrs by Annexin V-FITC/ propidium iodide staining based flow cytometry analysis (reference value: 1.15%); assay type: functional
[22] = tested on: Mus musculus; experiment: Antidiabetic activity against high fat diet-STZ-induced diabetic Swiss albino mouse model assessed as reduction in blood glucose level at 0.2 mmol/Kg/day, po administered for 14 days relative to control; assay type: functional; set-up: scale not given: the % may be the effect or the level left; conditions: time 14 day
[23] = Acute toxicity in Swiss albino mouse assessed as effect on behavioural change up to 2000 mg/kg, po administered for 14 days; assay type: organism-based; conditions: in vivo, 336 h, time 14 day
[24] = tested on: Mus musculus; experiment: Antidiabetic activity against high fat diet-STZ-induced diabetic Swiss albino mouse model assessed as reduction in blood glucose level at 0.2 mmol/Kg/day, po administered for 14 days relative to glimepiride; assay type: functional; set-up: scale not given: the % may be the effect or the level left; conditions: time 14 day
[25] = Acute toxicity in Swiss albino mouse assessed as effect on mortality up to 2000 mg/kg, po administered for 14 days; assay type: organism-based; conditions: in vivo, 336 h, time 14 day
[26] = Acute toxicity in Swiss albino mouse assessed as effect on motor alterations up to 2000 mg/kg, po administered for 14 days; assay type: organism-based; conditions: in vivo, 336 h, time 14 day
[27] = Acute toxicity in Swiss albino mouse assessed as toxic symptoms up to 2000 mg/kg, po administered for 14 days; assay type: organism-based; conditions: in vivo, 336 h, time 14 day
[28] = Cytotoxicity against HEK293 cells assessed as cell growth inhibition; assay type: toxicity, cell-based; conditions: human
[29] = Cytotoxicity against human ECT1/E6E7 cells assessed as cell growth inhibition; assay type: toxicity, cell-based
[30] = Cytotoxicity against human THLE-2 cells assessed as cell growth inhibition; assay type: toxicity, cell-based
[31] = Cytotoxicity against human BJ cells assessed as cell growth inhibition; assay type: toxicity, cell-based
[32] = Cytotoxicity against human WPE1-NA22 cells assessed as cell growth inhibition; assay type: toxicity, cell-based
[33] = Cytotoxicity against human HCN-1A cells assessed as cell growth inhibition; assay type: toxicity, cell-based
[34] = Cytotoxicity against human MCF-10F cells assessed as cell growth inhibition; assay type: toxicity, cell-based
[35] = Cytotoxicity against human MRC5 cells assessed as cell growth inhibition; assay type: toxicity, cell-based
[36] = tested on: voltage dependent L/T-type calcium channel; experiment: Inhibition of voltage dependent L/T-type calcium channel in human SH-SY5Y cells; conditions: sh-sy5y

Compound | inhibition at 10 µM [2] [%] | inhibition at 10 µM [4] [%] | inhibition at 10 µM [5] [%] | Activity [8] [mg/dL] | inhibition at 10 µM [11] [%] | inhibition at 10 µM [12] [%] | inhibition at 10 µM [13] [%] | inhibition at 10 µM [16] [%] | inhibition at 10 µM [18] [%] | Activity [20] [g] | Activity [22] [%] | Activity [23] | Activity [24] [%] | Activity [25] | Activity [26] | Activity [27] | further results
O=c1c(O)c(-c2ccc(O)c(O)c2)oc2cc(O)cc(O)c12 [QUERCETIN] |  |  |  |  |  |  |  |  |  |  |  |  |  |  |  |  | IC50 [1]: 8.21 µM
CCC1=C(C)CN(C(=O)NCCc2ccc(S(=O)(=O)NC(=O)N[C@H]3CC[C@H](C)CC3)cc2)C1=O [GLIMEPIRIDE] | 41.6 | 27.1 | 27.8 | 198.3 | 35.8 | 24.2 | 22 | 74 | 28.8 | 30.92 | 33.5 |  |  |  |  |  | Activity [3]: 0.76%; Activity [6]: 195.75 pg/mL; Activity [7]: 202.06 U/ml; Activity [9]: 0.27%; Activity [10]: 14.52 nmol/mL; Activity [14]: 11.88 uU/ml; Activity [15]: 639.5 ng/mL; Activity [17]: 0.49%; Activity [19]: 199.33 U/ml; Activity [21]: 2.86%
CCOC(=O)C1=C(C)NC(C)=C(C(=O)OC(C)(C)C)C1c1cccc2c1OCO2 (stereo unspecified) |  |  |  | 223.65 |  |  |  |  |  | 28.6 | 0.25 | Non-Toxic | <1 | Non-Toxic | Non-Toxic | Non-Toxic | Activity [6]: 403.17 pg/mL; Activity [7]: 175.14 U/ml; Activity [10]: 20.99 nmol/mL; Activity [14]: 7.01 uU/ml; Activity [15]: 1050.5 ng/mL; Activity [19]: 183.21 U/ml
COc1cccc2c1C(=O)c1c(O)c3c(c(O)c1C2=O)C[C@@](O)(C(=O)CO)C[C@@H]3O[C@H]1C[C@H](N)[C@H](O)[C@H](C)O1 [DOXORUBICIN] | 40.9 | 41.6 | 57.1 |  | 45.8 | 38.4 | 33 | 46 | 35.6 |  |  |  |  |  |  |  | GI50 [28]: 9.69 µM; GI50 [29]: 1.47 µM; GI50 [30]: 17.1 µM; GI50 [31]: 8.91 µM; GI50 [32]: 11.6 µM; GI50 [33]: 11.2 µM; GI50 [34]: 14.2 µM; GI50 [35]: 12.5 µM
C[C@H]1O[C@H](O[C@H]2[C@H](O)[C@@H](O)[C@@H](O[C@H]3[C@H](O)[C@@H](O)C(O)O[C@@H]3CO)O[C@@H]2CO)[C@H](O)[C@@H](O)[C@@H]1N[C@H]1C=C(CO)[C@@H](O)[C@H](O)[C@H]1O (stereo partly specified) [ACARBOSE] | 44.3 | 10.5 | 55.3 |  | 47.8 | 32.3 | 20.1 | 80.7 | 19.1 |  |  |  |  |  |  |  | 
CN(N=O)C(=O)N[C@@H](C=O)[C@@H](O)[C@H](O)[C@H](O)CO [STREPTOZOCIN] |  |  |  |  |  |  |  |  |  |  |  |  |  |  |  |  | Activity [3]: 2.09%; Activity [9]: 0.47%; Activity [17]: 1.62%; Activity [21]: 11.65%
COC(=O)C1=C(C)NC(C)=C(C(=O)OC)C1c1ccccc1[N+](=O)[O-] [NIFEDIPINE] |  |  |  |  |  |  |  |  |  |  |  |  |  |  |  |  | pIC50 [36]: 4.66
CC1=C(C(=O)OC(C)C)C(c2ccc3c(c2)OCCO3)C(C(=O)OC(C)C)=C(C)N1 |  |  |  | 297.19 |  |  |  |  |  | 28.8 | 0.34 | Non-Toxic | 1 | Non-Toxic | Non-Toxic | Non-Toxic | 
CCOC(=O)C1=C(C)NC(C)=C(C(=O)OCC)C1c1ccc2c(c1)Cc1ccccc1-2 |  |  |  | 296.94 |  |  |  |  |  | 29.3 | 0.42 | Non-Toxic | 1 | Non-Toxic | Non-Toxic | Non-Toxic | 
